From patent US20240002391A1, “4-ALKOXYPYRROLO[2,1-F][1,2,4]TRIAZINES AND PREPARATION AND USES THEREOF” (BioSplice Therapeutics, Inc., priority 2022, published 2024)

How the values were obtained:
[1] = biological target: recombinant DYRK1A kinase (Homo sapiens (Human), UniProt Q13627); test: DYRK1A kinase assay (Ser/Thr 18 peptide Z-lyte FRET); format: biochemical; conditions: DYRK1A kinase activity, Z-lyte Ser/Thr 18 peptide, 15 μM ATP; method text calls the value IC50; read-out: EC50 (the source's name)
Method in brief: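 Recombinant enzyme (0.25 μg/mL final) was incubated with 15 μM ATP, 4 μM Ser/Thr 18 peptide and compound (11-point 1:3 series from 10 μM) for 1 h at room temperature, in duplicate. Development reagent was added for 1 h, and coumarin/fluorescein emission ratio gave % phosphorylation; IC50 by non-linear regression.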

[2] = tested on: Tau phosphorylation at Thr212 (pThr212) in HEK293T cells transfected with DYRK1A and MAPT; test: Tau phosphorylation phosphoTau (Thr212) AlphaLISA assay in HEK293T cells transfected with DYRK1A and MAPT; format: cell-based; conditions: HEK-293T, HEK293T cells transiently transfected with human DYRK1A and MAPT, compound treatment 18-24 hours, read-out: pTau (Thr212) EC50
Description: Representative compounds were screened using the assay procedure for tau phosphorylation activity described below.
HEK293T cells (ATCC, CRL3216) cultured in DMEM (Thermo Fisher Scientific, 10566024) supplemented with 10% FBS (Coming, 35-011—CV) and Penicillin/Streptomycin (Thermo Fisher Scientific, 15140163) were seeded in a 75 cm^2 flask at 8.1×10^6 cells/flask. The HEK293T cells were then transiently transfected with 5 μg DYRK1A (NM_001396) human untagged clone (OriGene, SC314641) and 2.5 μg MAPT (441 a.a. Tau gene) (NM_005910) human untagged clone (OriGene, TP313312) using Lipofectamine 3000 (Thermo Fisher Scientific, L30000015) and incubated for 20-30 hours in a humidified incubator at 37° C. and 5% CO^2. Post-incubation, HEK293T cells transfected with the DYRK1A and MAPT expression vectors were harvested and seeded in BioCoat poly-D lysine coated 96-well plates (Coming, 354461) at 3×10^4 cells/well.
The above synthesized compounds were screened using the cell assay procedure to assess decreased Tau phosphorylation at Thr212 (pThr212) described below.
Each compound was dissolved in DMSO (Sigma-Aldrich, D8418-100 mL) as a 10 mM stock. 10 mM stocks were serially diluted 1:3, 10-point dose-response curve and added to the cells with a final concentration ranging from 20 μM to 1.1 nM. Cells were treated with compounds in duplicate and incubated for 18-24 hours in a humidified incubator at 37° C. and 5% CO^2.
Following the overnight compound treatment, cells were lysed with 1X Alpha Surefire Ultra Lysis Buffer (Perkin Elmer, ALSU-LB-100ML) complemented with 1X Halt Phosphatase Inhibitor Cocktail (Thermo Fisher Scientific, 78427) and 1X Halt Protease Inhibitor Cocktail (Thermo Fisher Scientific, 78438). Lysates were spun down at 12,000 g for 10 min to remove any cellular debris and 5 μL of lysates were dispensed into a 384-well Opti-Plate (Perkin Elmer, 6007290) for the measurement of Tau phosphorylation in the phosphoTau (Thr212) AlphaLISA assay. Donor antibody, biotinylated HT7Tau (Thermo Fisher Scientific, MN1000B), and acceptor antibody, pThr212Tau (Thermo Fisher Scientific, 44740G) were both added to the cell lysates at a final concentration of 3 nM and incubated for 1 hour at room temperature. Following incubation of the lysates with the donor and acceptor antibodies, anti-rabbit IgG(Fc specific) AlphaLISA acceptor beads (Perkin Elmer, AL104C) were added at a 10 ug/mL final concentration and incubated for 1 hour at room temperature protected from light. Lastly, AlphaScreen streptavidin donor beads (PerkinElmer, 6760002) were added at 40 ug/mL final concentration and incubated for 1 hour at room temperature protected from light. Plates were read at […] on the EnVision Multilabel Plate Reader (Perkin Elmer). The phospho-Tau (Thr212) AlphaLISA signal was used to plot, draw the curve fitting, and determine each compound's EC50 in Prism (GraphPad).

**Q.** Which results are given for `COc1nc(N[C@H]2CC[C@](C)(O)CC2)nn2ccc(-c3ccc4nccn4c3)c12` [Compound 56, trans-4-((5-(Imidazo[1,2-a]pyridin-6-yl)-4-methoxypyrrolo[2,1-f][1,2,4]triazin-2-yl)amino)-1-methylcyclohexan-1-ol]?
**A.** IC50 [1]: 1.3 nM; EC50 [2]: 35.7 nM
